Measurements from patent publication US20160320417A1, “METHODS AND KITS FOR DETERMINING RISK FOR DEVELOPING ALZHEIMER'S DISEASE AND PREVENTION OR TREATMENT THEREOF” (Loma Linda University, priority 2013, published 2016).

Legend:
peripheral blood cells = experiment: filipin staining of peripheral blood cells measured by flow cytometry after inducing cholesterol dysregulation; type: cell-based; conditions: peripheral blood cells (PBCs) treated with the compound; FIG. 7
Excerpt: In some embodiments, peripheral blood cells can be isolated and filipin levels measured by flow cytometry. This can allows for the cells to be isolated inexpensively and at minimal risk to the patient from simple venipuncture rather than requiring the invasive punch biopsy method for collection of fibroblasts as used and described in the results presented herein. A venipuncture can be performed with a venipuncture assembly including, for example, but not limited to, a plastic hub, a hydrodermic needle, a vacuum tube, a syringe, a butterfly needle, and/or other blood collection or vanipuncture devices known in the art. Accordingly, the ability to isolate peripheral blood cells and measure the filipin levels by flow cytometry can facilitate the commercialization of the testing procedure and techniques described herein for preventing and detecting disease. The isolation of peripheral blood cells and measuring of the filipin levels by flow cytometry was tested in two ways. […] Cholesterol dysregulation was induced by treating the cells with Ul 8666A, a compound that inhibits cholesterol synthesis and intracellular trafficking.

[1] = clinical trials, cited from earlier work; for mitigation of clinical AD progression: drugs aimed at preventing Aβ aggregates from forming into SPs

SMILES	mitigation of clinical AD progression [1]	further results
CCN(CC)CCO[C@H]1CC[C@@]2(C)C(=CC[C@@H]3[C@@H]2CC[C@]2(C)C(=O)CC[C@@H]32)C1 [U18666A]	–	effect on filipin staining (filipin fluorescence) (peripheral blood cells): dose-dependent effect
NCCCS(=O)(=O)O [homotaurine]	failed to mitigate clinical AD progression	–
O[C@H]1[C@H](O)[C@@H](O)[C@H](O)[C@@H](O)[C@@H]1O [scyllo-inositol]	failed to mitigate clinical AD progression	–
C[C@@H](C(=O)O)c1ccc(-c2ccccc2)c(F)c1 [tarenflurbil]	–	benefit to cognitive function ([1]; compounds targeting γ-secretase, even when reducing Aβ levels): no benefit to cognitive function
